Reference: US20240277851A1, “siRNA DELIVERY VECTOR” (COUNCIL OF SCIENTIFIC & INDUSTRIAL RESEARCH, priority 2021, published 2024)

Tests used:
[1] = system: MDA-MB-231 breast cancer cells; test: Trypan blue dye exclusion cell viability, MDA-MB-231; format: cell-based; details: MDA-MB-231, 24 h and 48 h, FIG. 1A
Method: FIG. 1: Mito-Esc dose- and time-dependently induces breast cancer cell death without affecting normal cell viability. (A) MDA-MB-231 breast cancer cells were treated with various concentrations of Mito-Esc (1.25-7.5 μM). Cell viability was measured by trypan blue dye exclusion assay at 24 h and 48 h. (B) Same as A, except that cells were treated with parent Esc (5-50 μM). (C) Same as A, except that MCF10A (normal mammary epithelial) cells were treated with Mito-Esc (5-50 μM).
MDA-MB-231 (a Triple negative breast cancer cell line, ATCC) and MCF-10A cells (normal mammary epithelial cells, ATCC) were grown in Dulbecco's Modified Eagle's medium (DMEM) containing 10% FBS, 1% (v/v) Sodium Pyruvate (100 mM), Sodium bicarbonate (26 mM), L-glutamine (4 mM), penicillin (100 units/ml), and streptomycin (100 μg/ml). Cells were maintained in an incubator at 37° C. in a humidified atmosphere of 5% CO2 and 95% air.
To evaluate cytotoxicity of the Mito-Esc or Mito-Esc lipoplexes with siMnSOD, a trypan blue dye exclusion assay was used. Briefly, cells were seeded in a 12-well plate at a density of 3×10^4 cells per well and cultured overnight before transfection. […] The cell suspension (10 μl) was mixed with an equal amount of trypan blue and counted using an automated cell counter (Countess, Life Technologies). […]

[2] = system: HeLa (cervical) cancer cells; test: Sulforhodamine B cytotoxicity, HeLa; format: cell-based; details: 24 h
Method: (§1) Cytotoxicity of Mito-Esc on different cancer cell lines HeLa (cervical), HepG2 (liver), MCF-7 (ER+ve breast), A549 (lung), DU-145 (prostate) cancer cells and MCF-10A (normal mammary epithelial cells) were determined by treating with Mito-Esc (0.5-100 μM) for 24 h and cell viability was measured by Sulforhodamine B assay.

[3] = system: HepG2 (liver) cancer cells; test: Sulforhodamine B cytotoxicity, HepG2; format: cell-based; details: HepG2, 24 h
Method: as §1

[4] = system: MCF-7 (ER+ve breast) cancer cells; test: Sulforhodamine B cytotoxicity, MCF-7; format: cell-based; details: MCF-7, 24 h
Method: as §1

A549 (lung) cancer cells = test: Sulforhodamine B cytotoxicity, A549; format: cell-based; details: A549, 24 h
Method: as §1

[5] = system: DU-145 (prostate) cancer cells; test: Sulforhodamine B cytotoxicity, DU-145; format: cell-based; details: DU-145, 24 h
Method: as §1

[6] = system: MCF-10A (normal mammary epithelial cells); test: Sulforhodamine B cytotoxicity, MCF-10A; format: cell-based; details: 24 h
Method: as §1

[7] = Size and surface charge of Mito-Esc nanoparticles (DLS, zeta potential); format: physicochemical; details: aqueous solution (1% EtOH)
Method: The size (hydrodynamic diameter) and the surface charge (zeta potentials) of a Mito-Esc nanoparticle were measured by photon correlation spectroscopy and the electrophoretic mobility on a Zetasizer 3000HSA (Malvern, UK). The size was measured in deionized water with a sample refractive index of 1.33, a viscosity of 0.88 cP and a temperature of 25° C. The size was measured in triplicate. The zeta potential was measured using the following parameters: viscosity, 0.88 cP; dielectric constant, 78.5, and temperature, 25° C.
(§2) The self-assembling properties of Mito-Esc were explored. The particle size of an aqueous solution (1% EtOH) of Mito-Esc was measured using Dynamic light scattering (DLS). Mito-Esc formed nanosized particles of size 166±30 nm and surface charge of 33±0.4 mV (FIG. 2A). The size and morphology of self-assembled nanoparticles of Mito-Esc was investigated by scanning and by transmission electron microscopy respectively. Mito-Esc formed spherical shaped nanoparticles of <200 nm (FIGS. 2B & 2C).

[8] = Scanning and transmission electron microscopy of nanoparticles; format: physicochemical; details: spherical shaped nanoparticles
Method: Transmission electron microscopy studies were performed on a Tecnai T12 microscope (FEI) at 120 kV, and images were taken using an SIS CCD camera; Samples were negatively stained with ammonium molybdate on 200 or 400 mesh carbon-coated copper grids (Ted Pella, Inc.). Before recording micrographs, the grids were air dried.
Field emission scanning electron microscopic (FESEM) analysis of a Mito-Esc nanoparticle was performed on a Carl Zeiss SIGMA HD field-emission scanning electron microscope.
as §2

MDA-MB-231 cells = test: Intracellular delivery of Cy-5 siRNA by confocal imaging, MDA-MB-231; format: cell-based; details: MDA-MB-231, Cy-5 siRNA 40 nM, 24 h
Method: (§3) FIG. 5: Detection of intracellular delivery of Cy-5 siRNA by Mito-Esc using confocal imaging. MDA-MB-231 cells were transfected with Cy-5 labelled siRNA (40 nM) with indicated delivery systems for 24 h. Transfection efficacy was evaluated using Confocal Microscopy. Cy-5 fluorescence in the cytosol is shown in blue color (Scale bar 10X). Briefly, MDA-MB-231 cells were seeded on a coverslip in 12-well plates at a density of 3×10^4 cells per well in 1 mL complete DMEM and cultured for 12 h. Fluorescent (Cy-5) siRNA was complexed either with lipofectamine-2000 (positive control) or with Mito-Esc (2.5 μM) or parent esculetin (2.5 μM) or with different cationic lipids in serum free DMEM medium for 30 min before addition into the plates. These lipoplexes were added to the cells and incubated for 6 h. After that, cells were washed twice with PBS and fixed with 4% paraformaldehyde for 15 min. Finally, slides were mounted and the cells were imaged using a confocal microscope. Florescent labeled siRNA with Mito-Esc lipoplexes were prepared as described above and incubated with MDA-MB-231 cells for 24 h. The cells were stained by DAPI to stain the nucleus. The cells were mounted and observed under confocal microscope (Olympus, Tokyo, Japan).

MCF-10A cells = test: Intracellular delivery of Cy-5 siRNA by confocal imaging, MCF-10A; format: cell-based
Method: FIG. 6: Comparison of intracellular delivery of Cy-5 siRNA using confocal imaging. MCF-10A cells were transfected with Cy-5 labelled siRNA using different delivery mechanisms. Transfection efficacy was evaluated using Confocal Microscopy. Cy-5 fluorescence in the cytosol is shown in blue.
as §3, with “Briefly,” for “FIG. 5: Detection of intracellular delivery of Cy-5 siRNA by Mito-Esc using confocal imaging. MDA-MB-231 cells were transfected with Cy-5 labelled siRNA (40 nM) with indicated delivery systems for 24 h. Transfection efficacy was evaluated using Confocal Microscopy. Cy-5 fluorescence in the cytosol is shown in blue color (Scale bar 10X). Briefly,”

[9] = system: MDA-MB-231 cells in mammary fat pad; test: In-vivo orthotopic MDA-MB-231 tumor model; details: SCID mice, i.p. 3 and 6 mg/kg for two weeks
Method: Inoculation of MDA-MB-231 cells into mammary fat pad of SCID mice: 6-week-old female SCID mice were used for the experiment. Initially, 10 nM Qtracker labeling solution (Qtracker Cell Labeling Kit, Invitrogen Q25071MP) was prepared by pre-mixing 10 μL each of Component A and Component B in a 1.5 mL microcentrifuge tube and incubated for 5 minutes at room temperature. This mixture was added to 0.2 mL of fresh complete growth medium and vortexed for 30 seconds and added to a 75-cm2 tissue culture flask containing MDA-MB-231 cells and incubated in a 37° C., 5% CO2 incubator overnight. Sub-confluent labeled cells were harvested and counted.
Cells (1×10^6) were suspended in 0.1 ml of serum free medium. To this 0.1 ml of matrigel was added and gently mixed to get a uniform cell suspension. The SCID mice were anesthetized with ketamine/xylazine cocktail (50 μL/20 g mice) and each mouse was implanted with above mentioned 1×10^6 Q-Tracker labelled MDA-MB-231 cells into the 4th pair of mammary fat pad orthotopically and sutured the fat pad after the inoculation of cells. The incision site was dressed with povidone-iodine to prevent infection every day until the incision healed. Mice were checked to see development of tumors and treatment began once the tumors reached a volume of ≥300 mm^3. […] On the day of sacrifice, tumor volumes were measured using Vernier calipers. […]

siRNA = test: Agarose gel electrophoresis retardation assay (siRNA binding); details: earlier findings, FIG. 2D; ratios 1:1 to 7:1
Method: Gel electrophoresis was performed with agarose gel (1.5% w/v) in tris-acetate-EDTA buffer (40 mM) with one drop of ethidium bromide added (concentration of EtBr stock solution: 0.625 mg/ml in H2O), at 100 V for 30 min. The siRNA lipoplexes were prepared by complexing siRNA with Mito-Esc, Mito-isoscopoletin and octyl TPP cation at described P^+/P^− ratios. The samples were incubated for 30 min at room temperature prior to addition into a well. The siRNA bands were visualized under UV illumination at 365 nm.
Mito-Esc nanoparticle solutions were prepared at various concentrations according to the desired final P+:P− charge ratio. Twenty μL solution of the Mito-Esc/siRNA complex was prepared to maintain a constant amount of siRNA in each solution (1 μg in 10 μL), and varying the amount of Mito-Esc according to the P+:P− charge ratio. The prepared mixtures were gently vortexed for 5 min. and incubated for 30 min at room temperature for complex formation.
The efficiency of Mito-Esc to bind siRNA was checked by agarose gel electrophoresis. Also, in order to assess the importance of hydrogen bonding in forming the stable siRNA complexes, Mito-isoscopoletin was synthesized by protecting the dihydroxy group with methyl group. Octyl TPP cation was used as a negative control.

MnSOD = MnSOD gene silencing by immunoblotting; format: cell-based; details: MDA-MB-231, siMnSOD 40 nM, 48 h
Method: FIG. 4: Mito-Esc/siMnSOD complex by depleting MnSOD levels exacerbates Mito-Esc-induced breast cancer cell death. (A) MDA-MB-231 cells were incubated either with Mito-Esc/siMnSOD (40 nM) complex or with lipofectamine-2000/siMnSOD complex for 48 h and cell viability was measured by trypan blue dye exclusion assay. (B) MDA-MB-231 cells were transfected with siMnSOD (40 nM) with indicated delivery systems for 48 h and MnSOD protein levels were measured by immunoblotting. Parenthesis indicates the relative expression of MnSOD normalized to GAPDH (loading control).
At the end of the treatments, cell pellets were lysed in a RIPA buffer containing protease inhibitor cocktail, phosphatase inhibitor cocktail-2, 3. Proteins were resolved by SDS-PAGE and blotted onto a nitrocellulose membrane and blocked with 5% bovine serum albumin, washed, and incubated with primary antibodies (1:1000) over night at 4° C. The membranes were then washed and incubated for 1 h with anti-rabbit/mouse IgG horseradish peroxidase linked secondary antibodies (1:5000). ECL reagent (Amersham GE) was applied on the membrane prior to developing with a chemiluminescent system (Bio-Rad).
Cells were cultured in 12-well plates at a density of 3×10^4 cells per well (containing a glass coverslip the day before use). […]

| P+/P− charge ratios at which siRNA is bound (migration retarded) (siRNA) | Compound | concentrations causing dose-dependent cell death [1] | IC50 [2] | IC50 [3] | IC50 [4] | IC50 (A549 (lung) cancer cells) | IC50 [5] | IC50 [6] | particle size (DLS) [7] | surface charge [7] | nanoparticle size by SEM/TEM [8] | intracellular delivery of Cy-5 siRNA (MDA-MB-231 cells) | efficiency of siRNA delivery (MCF-10A cells) | breast cancer progression (tumor volume, weight) [9] | MnSOD protein levels (MnSOD) |
| --- | --- | --- | --- | --- | --- | --- | --- | --- | --- | --- | --- | --- | --- | --- | --- |
| – | O=c1cc(CCCCCCCC[P+](c2ccccc2)(c2ccccc2)c2ccccc2)c2cc(O)c(O)cc2o1 [Mito-Esc, (8-(6,7-dihydroxy-2-oxo-2H-chromen-4-yl)octyl) triphenylphosphonium] | 1.5 to 7.5 µM | 4.9 µM | 10 µM | 4.8 µM | 1.8 µM | 15.5 µM | > 100 µM | 166±30 nm | 33±0.4 mV | < 200 nm | significantly caused the intracellular delivery of Cy-5 siRNA | lower than Lipofectamine-2000 | regress breast cancer progression | – |
| did not bind the siRNA | (8-(6,7-dimethoxy-2-oxo-2H-chromen-4-yl)octyl)triphenylphosphonium [Mito-isoscopoletin] | – | – | – | – | – | – | – | – | – | – | failed to deliver the Cy-5 siRNA intracellularly | – | – | – |
| – | O=c1ccc2cc(O)c(O)cc2o1 [parent esculetin, esculetin] | – | – | – | – | – | – | – | – | – | – | failed to deliver the Cy-5 siRNA intracellularly | – | – | neither parent esculetin nor octyl TPP cation complexes were able to decrease MnSOD expression |
